In patent US12527788B2, “Defining RNA-small molecule affinity landscapes enables design of a small molecule inhibitor of an oncogenic non-coding RNA” (University of Florida Research Foundation, Incorporated, priority 2017, dated 2026):
Entries after “also recorded” stand apart in the source; their conditions may differ.

Tests used:
[1] = system: DU145 prostate cancer cells; experiment: Apoptosis by Annexin V/PI staining; assay type: cell-based; conditions: 10 μM and 20 μM
Description: A, Effect of 4 on STK4 protein expression, a direct target of miR-18a. B, Ability of 4 (10 μM and 20 μM) and a miR-18a antagomir (50 nM) to trigger apoptosis. *, p<0.05 and **, p<0.01, as determined by a two-tailed Student t-test.
Although the most common route to modulate protein expression is to inhibit them directly, here we show it is possible to increase protein expression by targeting non-coding RNAs that repress their production.

[2] = system: 5′GAU/3′C_A (A bulge of pre-miR-18a); experiment: HiT-StARTS Fitness Score, 3×2 ILL selection; assay type: binding, human; conditions: Zobs normalized to most significant binder
From the text: (§1) Additionally, Zobs Rank (and by analogy Zobs) can also be used to estimate the affinities of binding interactions (FIG. 5). Single exponential curves with an asymptote defined a correlation between Zobs and experimentally determined Kd for each compound and its cognate RNA motifs. In all cases, there is excellent correlation with R values ranging from 0.86 to 0.96. These scoring functions can provide a means to rapidly profile small molecules for binding to an “on-” and “off-” targets, as mentioned above. Zobs values were normalized to the most statistically significant RNA binder (100% Fitness) to afford Fitness Scores.
(§2) To test the general applicability of these approaches to other RNA motif libraries, we used 2DCS to select RNA motifs derived from a 3×2 internal loop library (3×2 ILL) that bind to small molecules 1-8. […] That is, selective binders have Zobs>8 (p<0.0001) and relative Zobs defined a scoring function for the selected RNA motif-small molecule interactions.
(§3) These studies identified that compound 4 bound with 100% Fitness to the 5′ G_U/3′CUA (one nucleotide U bulge) that is present in the Dicer processing sites of three microRNAs (miRNAs) in the oncogenic miR-17-92 cluster (contains six mature miRNAs),^43 miR-17, -18a, and -20a. […] The binding affinity of 4 for RNAs containing these three bulges was measured (FIG. 7).
(§4) Calculating Statistical Significance (Zobs) for Selected RNAs: To determine if the difference in frequency for given RNA in the starting library and in the selection was statistically significant, a pooled population comparison (Zobs) was calculated using equations (1) and (2):
(§5) [formula] […] Where n1 is the size of population 1 (number of reads for a selected RNA); n2 is the size of population 2 (number of reads for the same RNA from sequencing of the starting library); p1 is the observed proportion of population 1 (number of reads for a selected RNA divided by the total number of reads); p2 is the observed proportion for population 2 (number of reads for the same RNA divided by the total number of reads in the starting library).

[3] = system: 5′G_U/3′CUA (one nucleotide U bulge); experiment: HiT-StARTS Fitness Score, 3×2 ILL selection; assay type: binding, human; conditions: Zobs normalized to most significant binder
From the text: as §1, §2, §3, §4, §5

[4] = system: 5′GGU/3′C_A (G bulge of pre-miR-17 and pre-miR-20a); experiment: HiT-StARTS Fitness Score, 3×2 ILL selection; assay type: binding, human; conditions: Zobs normalized to most significant binder
From the text: as §1, §2, §3, §4, §5

[5] = system: pre-miR-20; experiment: In vitro Dicer inhibition assay; assay type: biochemical, human; conditions: low micromolar concentrations
Description: (§6) Initial studies were completed in vitro to determine if compound 4 (Targapremir-18a) inhibits Dicer processing of each miRNA separately in the miR-17-92 cluster using radioactively labeled RNA (FIG. 8A). […] Thus, inhibition of Dicer processing by 4 is selective for miR-17, -18a, and -20a and non-selective inhibition of Dicer processing is not observed.
(§7) Dicer Inhibition Assay: The template used for pre-miR-18a (5′-[…] GCTCCTTCTGGCA) (SEQ ID NO: 41) was PCR-amplified in 1×PCR Buffer, 2 μM forward primer (5′-[…]-AAGGTGCATCTAGTGCAGA) (SEQ ID NO: 42), 2 μM reverse primer (5′-[…]) (SEQ ID NO: 43), 4.25 mM MgCl2, 330 μM dNTPs, and 2 μL of Taq DNA polymerase in a 50 μL reaction. Cycling conditions were 95° C. for 30 s, 55° C. for 30 s, and 72° C. for 60 s. […] The samples was then supplemented with 1 mM ATP and 2.5 mM MgCl2. Serially diluted concentrations of 4 were added and the samples were incubated at room temperature for 15 min. Next, 0.005 units/μL of recombinant human Dicer (Genlantis) were added followed by incubation at 37° C. overnight. Reactions were stopped by adding the manufacturer's supplied stop solution.
(§8) A T1 ladder (cleaves G residues) was generated by heating the RNA in 1×RNA Sequencing Buffer (20 mM sodium citrate, pH 5.0, 1 mM EDTA, and 7 M urea) at 55° C. for 10 min followed by slowly cooling to room temperature. RNase T1 was then added to a final concentration of 3, 0.3, 0.03 units/μL and the solution was incubated at room temperature for 20 min. An RNA hydrolysis ladder was generated by incubating RNA in 1×RNA hydrolysis buffer (50 mM NaHCO3, pH 9.4, and 1 mM EDTA) at 95° C. for 5 min. In all cases, cleavage products were separated on a denaturing 15% polyacrylamide gel and imaged using a Bio-Rad PMI phosphorimager.

[6] = system: pre-miR-19a; experiment: In vitro Dicer inhibition assay; assay type: biochemical, human
Description: as §6, §7, §8

[7] = system: pre-miR-19b; experiment: In vitro Dicer inhibition assay; assay type: biochemical, human
Description: as §6, §7, §8

[8] = system: pre-miR-17; experiment: In vitro Dicer inhibition assay; assay type: biochemical, human; conditions: low micromolar concentrations
Description: as §6, §7, §8

[9] = system: pre-miR-18a; experiment: In vitro Dicer inhibition assay; assay type: biochemical, human; conditions: low micromolar concentrations
Description: as §6, §7, §8

CN1CCN(c2ccc(-c3ccc4nc(-c5cc(C(C)(C)C)c(OCCCC(=O)NCCCN=[N+]=[N-])c(C(C)(C)C)c5)[nH]c4c3)cc2)CC1 [Compound 4]
Apoptosis [1]: triggers apoptosis | Fitness [2]: 91% | Fitness [3]: 100% | Fitness [4]: 78% | Inhibition of Dicer processing [5]: inhibited Dicer processing | Effect on Dicer processing [6]: no effect | Effect on Dicer processing [7]: no effect | Inhibition of Dicer processing [8]: inhibited Dicer processing | Inhibition of Dicer processing [9]: inhibits in vitro Dicer processing; also recorded: inhibited Dicer processing
